Reference: patent publication US10407447B2, “Pantothenate derivatives for the treatment of neurological disorders” (Retrophin, Inc., priority 2013, dated 2019)

Experiments:
[1] = tested on: PANK2 silenced cells (IMR32 Human Neuroblastoma Cells); experiment: Neuroblastoma cell assay: CoASH by LC-MS/MS in PANK2 silenced cells; type: cell-based; conditions: 50 μM, treatment repeated after 24 hours, further 24 hours; free CoASH by LC-MS/MS
Description: The compounds described herein may be tested in PANK2 silenced cells (IMR32 Human Neuroblastoma Cells). The amount of CoASH following administration of the compounds is measured by LC-MS/MS.
Human neuroblastoma IMR32 cells (ATCC) were cultured in MEM (Invitrogen) supplemented with 10% fetal bovine serum, 2 mM glutamine, 1% penicillin-streptomycin, 1 mM sodium pyruvate, 1 mM non essential aminoacids and 1.5 g/l sodium bicarbonate.
Human Emryonic Kidney HEK-293T cells (ATCC) were cultured in DMEM supplemented with 10% fetal bovine serum, 1 mM glutamine, 1% penicillin-streptomycin.
The cells were maintained at 37° C. under 5% CO2.
Establishment of a PANK2−/− Cell Model
For lentiviral shRNA expression, Human Emryonic Kidney HEK-293T cells (ATCC) were transfected with the appropriate pGFP-Lenti-shRNA constructs and packaging plasmids according to manufacturer's protocol (Origene Technologies, Inc.). 4 different gene-specific shRNA expression vectors designed against multiple splice variants of PANK2 (Gene ID 80025) were used for transfection. A non-silencing shRNA construct (scrambled shRNA) and an empty vector expressing GFP alone were used as negative controls. The GFP tag subcloned into the lentiviral vectors was used to monitor the transfection efficiency.
IMR32 cells were plated on […] dishes 48 hrs before transduction with lentiviral particles.
Three days after transduction medium was removed and replaced with fresh medium containing […] puromycin. Medium was replaced every 48 hrs. Levels of PANK2 expression on selected clones was assessed by Western Blot analysis.
Cell-Based Assay on PANK2−/− Cells
Cells were plated on 6-well culture plates. After 72 hours, compounds were diluted in DMSO and added to the culture medium such that the final solvent concentration was 0.1% (v/v). […] Before analysis of Coenzyme A levels, cells were harvested, counted and collected in a 15 ml falcon tube and centrifuged at 200×g for 5 min at 4° C. […]
Results are expressed as fold increase in CoA levels (LCMS quantification of free CoASH as described in above).

Pank1−/− mice = experiment: In vivo testing: liver Coenzyme A levels in Pank1−/− mice; design: species or system mouse; conditions: liver CoA in treated Pank1−/− mice as percentage of untreated Pank1−/− mice; intraperitoneal 1.2 μmoles/g body weight once daily for 5 days, fasted overnight
Description: Compounds of the invention were tested for efficacy in Pank1^−/− mice (strain 129SvJ×C57BL/6J background), which were compared with age-matched Pank1^+/+ (strain 129SvJ×C57BL/6J) littermates, ages 8-12 weeks. Each mouse was identified with a coded ear tag and weighed on the first day of testing. Each compound was administered to 4-5 mice by intraperitoneal injection at a dose of 1.2 μmoles/g body weight in 5 μL dimethylsulfoxide once daily for 5 days, and mice were then fasted overnight, weighed, and euthanized. Untreated mice received 5 μL dimethylsulfoxide once daily for 5 days and then were fasted overnight prior to weighing and euthanasia. Livers were excised from each mouse, aliquots were snap-frozen in liquid nitrogen, and stored at −80° C. Within 7 days, liver samples were thawed on ice, weighed, and analyzed for Coenzyme A content as described below. Efficacy was indicated by a statistically significant increase in the liver Coenzyme A levels in the Pank1^−/− mice as compared to the liver from untreated Pank1^−/− mice and by equivalence in comparison with Coenzyme A levels in untreated Pank1^+/+ mice.
CoA Measurements: Extraction of Fibroblasts and Liver and Derivatization of Coenzyme A Prior to High Pressure Liquid Chromatography (HPLC) […]
Coenzyme A Quantification by HPLC […]

SMILES	CoA levels (fold over vehicle treated PANK2−/− cells) [1]	CoA (% KO) (Pank1−/− mice)
COC(=O)CCNC(=O)[C@H](O)C(C)(C)COP(=O)(N[C@@H](C)C(=O)OCc1ccccc1)Oc1ccccc1 (stereo partly drawn) [Compound 24, Benzyl (((R)-3-hydroxy-4-((3-methoxy-3-oxopropyl)amino)-2,2-dimethyl-4-oxobutoxy)(phenoxy)phosphoryl)-L-alaninate]	1.7 fold	–
COC(=O)CCNC(=O)[C@H](O)C(C)(C)COP(=O)(N[C@@H](Cc1ccccc1)C(=O)OCc1ccccc1)Oc1ccccc1 (stereo partly drawn) [Compound 27, Benzyl (((R)-3-hydroxy-4-((3-methoxy-3-oxopropyl)amino)-2,2-dimethyl-4-oxobutoxy)(phenoxy)phosphoryl)-L-phenylalaninate]	1.3 fold	1837 % KO
COC(=O)[C@H](C)NP(=O)(OCC(C)(C)[C@@H](O)C(=O)NCCC(=O)OCc1ccccc1)Oc1ccccc1 (stereo partly drawn) [Compound 22, Benzyl 3-((2R)-2-hydroxy-4-(((((S)-1-methoxy-1-oxopropan-2-yl)amino)(phenoxy)phosphoryl)oxy)-3,3-dimethylbutanamido)propanoate]	1.1 fold	400 % KO
